Measurements published in paper PMC12027554, “Inhibition of ABCG2 by SCO-101 Enhances Chemotherapy Efficacy in Cancer” (International Journal of Molecular Sciences, 2025).

What was measured:
ABCG2 = molecular target: T1, ABCG2 (Homo sapiens, UniProt Q9UNQ0); assay: Bidirectional transport of estrone-3-sulfate across Caco-2 cell monolayers; type: cell-based; settings: Caco-2 monolayers, 50 µM SCO-101
T1 sequence (Q9UNQ0 1-655): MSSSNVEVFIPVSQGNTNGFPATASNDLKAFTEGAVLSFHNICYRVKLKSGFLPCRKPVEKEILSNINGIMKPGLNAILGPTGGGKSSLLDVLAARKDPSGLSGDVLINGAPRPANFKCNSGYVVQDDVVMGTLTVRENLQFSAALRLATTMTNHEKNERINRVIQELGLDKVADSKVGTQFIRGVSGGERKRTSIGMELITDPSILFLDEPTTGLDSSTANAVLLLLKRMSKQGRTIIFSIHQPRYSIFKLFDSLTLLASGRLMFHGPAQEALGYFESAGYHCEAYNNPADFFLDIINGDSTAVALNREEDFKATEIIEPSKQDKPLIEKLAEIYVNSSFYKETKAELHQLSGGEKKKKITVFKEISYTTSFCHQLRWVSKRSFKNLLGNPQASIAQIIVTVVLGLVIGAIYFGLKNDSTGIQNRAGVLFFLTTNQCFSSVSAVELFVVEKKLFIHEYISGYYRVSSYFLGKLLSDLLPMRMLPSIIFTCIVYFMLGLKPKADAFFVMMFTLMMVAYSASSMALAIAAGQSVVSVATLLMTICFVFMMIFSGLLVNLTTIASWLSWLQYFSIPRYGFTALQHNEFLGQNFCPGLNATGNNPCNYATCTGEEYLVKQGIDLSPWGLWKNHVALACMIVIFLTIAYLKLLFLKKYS
Protocol: Bidirectional transport experiments (basolateral-to-apical and apical-to-basolateral) with the ABCG2 substrate estrone-3-sulfate and the MDR1/ABCB1 substrate digoxin were performed in Caco-2 cell monolayers as previously described.

HT29PAR cells = assay: Cell viability assay (MTT / CCK-8), drug-sensitive HT29; type: cell-based, human; settings: Homo sapiens, HT-29, 72 h
Protocol: (§1) Cells were seeded at a density of 0.2–1 × 10^4 cells/well into 96-well plates. One day after seeding, treatments were performed in triplicate for 72 h, or as otherwise indicated in the relevant panel/figure legend and kept at 37 °C/5% CO2. Growth medium alone (“untreated” cells) or DMSO was used as a control.
For MTT assays, media were replaced at the final timepoint with 100 μL of 1:10 MTT reagent (0.5 mg/mL in PBS) diluted in growth medium, and plates were incubated for 3 h. A total of 100 μL/well of stop buffer (50 g Sodium Dodecyl Sulfate, 245 mL ddH2O, 5 mL 1N HCl) was added and plates incubated for 24 h to let colored formazan crystals develop. Optical densities (ODs) were measured with a PowerWave^TM Microplate spectrophotometer (BioTek, Winooski, VT, USA) at 570 nm and 670 nm (background).
For CCK-8 assays, 100 μL of 1:10 CCK-8 reagent (pevonedistat-treated HT29 cells) diluted in medium was added to each well and cells incubated for 1–2 h at 37 °C. OD values were measured at 450 nm with a VersaMax microplate spectrophotometer (Molecular Devices, San Jose, CA, USA).
Background values were subtracted prior to further analysis. The percentage of cell viability was expressed as relative values versus untreated cells as determined by the various assays. EC50/IC50 values were calculated using GraphPad Prism (v10.4.1) and the in-built non-linear regression [log (inhibitor) vs. response—variable slope (four parameters)] calculation. For determination of synergy scores, the online tool SynergyFinder+ (https://synergyfinder.org access date 15 February 2025) was employed following 4 × 4- or 6 × 6-matrix dose-escalation cell viability experiments. Doses of drugs are indicated in the relevant figure legends and ranges have been chosen based on the response of cells to single-drug dose-dependent experiments. Synergy scores were calculated using the ZIP model, which takes the advantages of both the Loewe additivity and the Bliss independence models, aiming at a systematic assessment of various types of drug interaction patterns that may arise in a high-throughput drug combination screening.

[1] = design: method as in PMID 32628359; settings: four independent Phase I studies; cited from earlier work
MRP2/ABCC2 = molecular target: T2, MRP2/ABCC2 (Homo sapiens, UniProt Q92887); assay: Efflux transporter inhibition, vesicular uptake into inside-out membrane vesicles (ABCC2); type: biochemical; settings: 100 μM 5(6)-carboxy-2′,7′-dichlorofluorescein
T2 construct: purchased SOLVO biotechnology, Budapest, Hungary
T2 sequence (Q92887 whole entry): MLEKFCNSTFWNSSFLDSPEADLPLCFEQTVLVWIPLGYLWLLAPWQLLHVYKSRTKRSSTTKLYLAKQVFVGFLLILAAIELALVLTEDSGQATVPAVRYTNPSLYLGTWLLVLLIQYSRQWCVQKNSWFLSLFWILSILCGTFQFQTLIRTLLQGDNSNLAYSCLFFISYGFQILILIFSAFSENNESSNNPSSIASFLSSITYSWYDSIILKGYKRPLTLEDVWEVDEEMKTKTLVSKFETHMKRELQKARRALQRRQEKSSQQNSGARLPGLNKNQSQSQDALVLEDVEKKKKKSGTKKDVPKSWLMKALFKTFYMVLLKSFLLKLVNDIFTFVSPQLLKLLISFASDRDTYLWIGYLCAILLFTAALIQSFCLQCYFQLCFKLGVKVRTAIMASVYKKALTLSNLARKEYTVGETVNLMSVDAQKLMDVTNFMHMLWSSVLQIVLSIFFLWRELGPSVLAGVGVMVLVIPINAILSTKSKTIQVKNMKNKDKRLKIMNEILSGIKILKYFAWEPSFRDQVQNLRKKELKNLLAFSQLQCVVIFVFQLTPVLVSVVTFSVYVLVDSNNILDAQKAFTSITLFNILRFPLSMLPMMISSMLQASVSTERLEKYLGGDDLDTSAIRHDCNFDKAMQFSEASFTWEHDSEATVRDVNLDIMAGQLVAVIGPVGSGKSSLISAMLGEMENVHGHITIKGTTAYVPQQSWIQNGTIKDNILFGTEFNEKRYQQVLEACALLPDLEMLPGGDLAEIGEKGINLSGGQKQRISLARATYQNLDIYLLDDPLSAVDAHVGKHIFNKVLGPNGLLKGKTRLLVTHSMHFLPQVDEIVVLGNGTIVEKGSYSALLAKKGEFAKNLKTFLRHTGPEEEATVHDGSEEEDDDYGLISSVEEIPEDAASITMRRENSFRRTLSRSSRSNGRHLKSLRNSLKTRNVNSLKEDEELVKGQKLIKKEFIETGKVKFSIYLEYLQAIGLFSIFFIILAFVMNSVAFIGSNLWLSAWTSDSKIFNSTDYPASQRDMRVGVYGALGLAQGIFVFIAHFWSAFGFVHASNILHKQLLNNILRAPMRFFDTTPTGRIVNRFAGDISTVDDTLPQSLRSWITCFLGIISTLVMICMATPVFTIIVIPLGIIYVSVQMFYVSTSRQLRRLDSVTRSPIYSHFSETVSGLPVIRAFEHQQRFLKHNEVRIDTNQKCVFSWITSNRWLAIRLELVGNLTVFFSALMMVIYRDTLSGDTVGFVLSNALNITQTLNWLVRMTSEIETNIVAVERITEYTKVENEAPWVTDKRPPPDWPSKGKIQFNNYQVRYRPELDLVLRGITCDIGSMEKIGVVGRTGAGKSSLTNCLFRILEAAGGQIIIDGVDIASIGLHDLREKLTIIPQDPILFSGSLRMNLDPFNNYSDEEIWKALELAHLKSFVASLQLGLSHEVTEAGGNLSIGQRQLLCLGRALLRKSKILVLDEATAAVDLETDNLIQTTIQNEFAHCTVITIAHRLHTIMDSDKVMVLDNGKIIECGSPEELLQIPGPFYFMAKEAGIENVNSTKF
Protocol: Efflux transporter inhibition was evaluated by measuring vesicular uptake into inside-out membrane vesicles (SOLVO biotechnology, Budapest, Hungary) expressing a single human ABC transporter (0.67 mg/mL ABCB1; 0.67 mg/mL ABCC2; 0.33 mg/mL ABCG2 membrane protein) of a probe substrate (1 μM N-methyl-quinidine for ABCB1; 100 μM 5(6)-carboxy-2′,7′-dichlorofluorescein for ABCC2; 1 μM Eestrone-3-sulfate for ABCG2) in the presence of SCO-101 with and without ATP (4 mM) in 96-well plate format. Control solvent and control inhibitors (4–60 μM verapamil for […]; 1–15 μM sulfasalazine for ABCG2; 5.5–150 μM benzbromarone for ABCC2) were incubated in parallel. Vesicular uptake was conducted at 37 °C in incubation buffer (10 mM Tris-HCl, pH 7.4, 10 mM MgCl2, 250 mM sucrose) and terminated after 1 min (ABCB1 and ABCG2) or 5 min (ABCC2) by adding ice-cold washing buffer (10 mM Tris-HCl, pH 7.4, 100 mM NaCl, 250 mM sucrose). […] Probe quantification was conducted using LC-MS/MS peak areas (solvent control with ATP − AMP = 100%). […] The remaining transporter activity % was calculated according to the formula below, and fitting was performed using GraphPad Prism: A%=AATP,sample−AAMP,sample/AATP,solvent−AAMP,solvent

SCH cells = assay: Cell viability assay (CellTiter-Glo), SCH; type: cell-based; settings: 96 h
Protocol: as §1
For SCH, SNU-5, and MKN45 cells, 50 μL of CellTiter-Glo® Reagent (Promega; Madison, WI, USA) was added to each well at the end of the treatments. The content was mixed for 5 min to facilitate cell lysis and plates incubated at room temperature for 10 min to stabilize luminescent signals, which were then recorded using an EnVision Multi Label Reader (PerkinElmer; Waltham, MA, USA).
Background values were subtracted prior to further analysis. The percentage of cell viability was expressed as relative values versus untreated cells as determined by the various assays. EC50/IC50 values were calculated using GraphPad Prism (v10.4.1) and the in-built non-linear regression [log (inhibitor) vs. response—variable slope (four parameters)] calculation. […] Synergy scores were calculated using the ZIP model, which takes the advantages of both the Loewe additivity and the Bliss independence models, aiming at a systematic assessment of various types of drug interaction patterns that may arise in a high-throughput drug combination screening.

basolateral-to-apical transport of the ABCG2 substrate estrone-3-sulfate (ABCG2): completely blocked | IC50 (HT29PAR cells): > 25 µM | IC50 (MRP2/ABCC2): 24.1 µM
SMILES: O=C(Nc1cc(C(F)(F)F)cc(C(F)(F)F)c1)Nc1ccc(Br)cc1-c1nnn[nH]1 [SCO-101, N-[4-Bromo-2-(1H-1,2,3,4-tetrazol-5-yl)phenyl]-N′-[3,5-bis(trifluoromethyl)phenyl]urea]
toxicity [1]: low SCO-101 toxicity | IC50 (SCH cells): > 50 µM
